Measurements taken from patent US6774131B1, “Remedies for endothelin-induced diseases” (Yamanouchi Pharmaceutical Co., Ltd., priority 2000, dated 2004).

Key:
Format in all cases: cell-based
[1] = test system: MC3T3-E1, mouse osteoblast-like cells; test: ET-1-induced increase of intracellular Ca2+ concentration in MC3T3-E1
Protocol: (§1) MC3T3-E1, mouse osteoblast-like cells, was used in these experiments (Journal of Cell Biology,96(1),191-198,1983).
The cell was cultured in a cell disk (of a 13.5-mm diameter) until the cell reached confluency; thereafter, the cell was then cultured in the absence of serum, for about 12 hours or longer and used for this experiment. Fura2-AM (4 μM) was added to the cell in the Hank's balanced salt solution (HBSS) (140 mM NaCl, 4 MM KCl, 1 mM K2HPO4, 1 mM MgCl2, 1 mM CaCl2, 10 mM glucose and 20 mM Hepes, pH-7.4) and incubated at 37° C. for one hour. The cell disk was fixed in a quartz cell placing therein HBSS; the quartz cell was fixed in an intracellular Ca^2+ assay unit (CAF-110). […] Intracellular Ca^2+ concentration was estimated by measuring and detecting the ratio of fluorescence intensities at 500 nm with excitation wave lengths of 340/380 nm and calculating intracellular Ca^2+ concentration using designated formula (J.Biol.Chem.,260,3440-3450,1985). […]
(§2) The results are shown in the form of mean±standard error. The significant difference between groups was analyzed by one-way analysis of variance, to calculate the p-values by the Dunnett's multiple range test. […] At each experiment, the EC50 value of ET-1 and the IC50 value of the Compound 1 were calculated by the Logistic regression analysis.

[2] = test system: MC3T3-E1, mouse osteoblast-like cells; test: ET-1-induced DNA synthesis ([3H]-thymidine incorporation) in MC3T3-E1
Protocol: as §1
As DNA synthesis level, the incorporation of [^3H]-labeled thymidine was assayed. The cells were seeded at a density of 1.5×10^4 cells/well in a 96-well plate using 0.2% FCS culture medium and cultured for 2 days. Subsequently, vehicle or ET-1 was added to the plate and cultured for 24 hours. Continuously, [^3H-methyl]-thymidine was added at 0.5 μCi/well to the culture and pulse-labeling performed for 6 hours. Continuously, SDS solution to a final concentration of 0.2% was added for solubilization of the cell, and after solubilization the radioactivity of [^3H-methyl]-thymidine used for DNA synthesis was counted with a liquid scintillation counter. As a control, the count of a culture to which the vehicle was added was defined 100%, thus the percentage increase of DNA synthesis was calculated. […]
as §2

[3] = test system: PPC-1, hormone-refractory human prostate cancer cells; test: ET-1-induced cell growth (cell number, alamar blue) of PPC-1; conditions: for Cell growth (%): control = 100
Protocol: PPC-1, hormone-refractory human prostate cancer cells, was used in these experiments(International Journal of Cancer,44,898-903,1989).
Cell number was counted by using a reagent solution of a alamar blue. The cells were seeded at 2×10^4 cells/well in a 24-well plate, after adhesion, the culture media were exchanged to culture media with no FCS-added, and further cultured for another 24 hours. Thereafter, vehicle or ET-1 (10^−11 to 10^−6 M) was added, and cultured for 96 hours. The final volume of the culture medium was 500 μl. Alamar blue of 50 μl was added to the culture, and incubated for 4 hours. After reaction, 100 μl portions collected from the individual wells of the 24-well plate were then transferred to a 96-well plate, and measured the absorbance (at a wave length of 405 nm and a reference wave length of 650 nm) with a plate reader. As a control, the count of a culture to which the vehicle was added was defined 100%, thus the percentage increase of cell number was calculated. The inhibitory effect of the compound was examined by adding the Compound 1 to a final concentration of 10^−9 to 10^−5 M, 30 minutes prior to the addition of ET-1 at 10^−7 M.
At the experiment, the culture medium was exchanged to a culture medium to which ET-1 was contained, 48 hours after stimulation, because the degradation of ET-1 was possible.

[4] = test system: PPC-1, hormone-refractory human prostate cancer cells; test: ET-1-induced cell growth ([3H]-thymidine incorporation) of PPC-1
Protocol: PPC-1, hormone-refractory human prostate cancer cells, was used in these experiments (International Journal of Cancer,44,898-903,1989).
DNA synthesis level was measured as the index of cell growth. As DNA synthesis level, the incorporation of [^3H]-labeled thymidine was assayed. The cells were seeded at a density of 1×10^4 cells/well in a 96-well plate using no FCS-added culture medium and cultured for 5 days. Subsequently, vehicle or ET-1 was added to the plate and cultured for 24 hours. Continuously, [^3H-methyl]-thymidine was added at 0.5 μCi/well to the culture and pulse-labeling performed for 6 hours. Continuously, SDS solution to a final concentration of 0.2% was added for solubilization of the cell, and after solubilization the radioactivity of [^3H-methyl]-thymidine used for DNA synthesis was counted with a liquid scintillation counter. As a control, the count of a culture to which the vehicle was added was defined 100%, thus the percentage increase of DNA synthesis was calculated.
In this experiment, ET-1 and Compound 1 were within the concentration ranges of 10^−13 to 10^−6 M (10-fold dilution series) and 10^−10 to 3×10^−6 M (3-fold dilution series), respectively, as the final concentrations thereof. Compound 1 was added about 2 hr before the addition of ET-1.
The results are shown in the form of mean t standard error. The significant difference between groups was analyzed by one-way analysis of variance, and calculated the p-values by the Dunnett's multiple range test. The p-value below 5% was defined as statistically significant. The IC50 value of the Compound 1 were calculated by the Logistic regression analysis.

## COc1ccccc1Oc1c(NS(=O)(=O)C=Cc2ccccc2)nc(-c2ncccn2)nc1OC.[K] [Compound 1, N-[6-methoxy-5-(2-methoxyphenoxy)-2-(2-pyrimidinyl)-4-pyrimidinyl]-2-phenylethenesulfoneamide•potassium salt]
[1]; ET-1 10^−8 M
  IC50: 10.2 nM
[2]; ET-1 10^−10 M, read-out: IC50 of ET-1-induced increase in [3H]-thymidine incorporation
  IC50: 11.5 nM
[3]; Compound 1 10^−5 M with ET-1 10^−7 M, n = 7
  Cell growth (%): 98.1%
[3]; Compound 1 10^−6 M with ET-1 10^−7 M, n = 7
  Cell growth (%): 99.2%
[3]; ET-1 10^−7 M
  concentration from which ET-1-induced cell growth was inhibited: ≥ 10^−6 M
[4]; ET-1 10^−8 M
  concentration above which the inhibitory effect was statistically significant: above 3×10^−7 M
[4]; ET-1 10^−8 M, [3H]-thymidine incorporation, read-out: IC50 of ET-1-induced promotion of PPC-1 cell growth
  IC50: 28 ± 9.8 nM

## ET-1: endothelin; induces pain in humans and experimental animals; used as stimulus of pain, Ca2+ increase and cell growth [reference compound]
[1]; ET-1 10^−12 to 10^−6 M
  EC50: 7.39 nM
[2]; ET-1 10^−13 to 10^−6 M, read-out: EC50 of increase of [3H]-thymidine incorporation (DNA synthesis)
  EC50: 0.00984 nM
[3]
  concentration from which ET-1-induced cell growth was observed: ≥ 10^−11 M
[3]; ET-1 10^−7 M, 96 h, n = 7 (Table 2)
  Cell growth (%): 119.3%
[3]; ET-1 10^−7 M, Compound 1 0 (Table 3), n = 7
  Cell growth (%): 110.5%
[3]; ET-1 10^−8 M, 96 h, n = 7
  Cell growth (%): 115.3%
[3]; ET-1 10^−9 M, 96 h, n = 7
  Cell growth (%): 124.0%
[3]; ET-1 10^−10 M, 96 h, n = 7
  Cell growth (%): 122.3%
[3]; ET-1 10^−11 M, 96 h, n = 7
  Cell growth (%): 119.6%
[4]
  concentration above which the effect of ET-1 on [3H]-thymidine incorporation was statistically significant: above 10^−8 M
